Measured values reported in ChEMBL document CHEMBL1145415, “Synthesis and antibacterial activity of novel fluoroquinolones containing substituted piperidines” (2007).
≈ marks a conversion by molar mass, not a printed value.

Columns and labels:
Type in all cases: functional
Streptococcus pneumoniae = experiment: Antibacterial activity against Streptococcus pneumoniae 05-9 after 18 to 24 hrs
Staphylococcus aureus [1] = experiment: Antibacterial activity against methicillin-resistant Staphylococcus aureus 05-3 after 18 to 24 hrs
Pseudomonas aeruginosa = experiment: Antibacterial activity against Pseudomonas aeruginosa […] after 18 to 24 hrs
Klebsiella pneumoniae = experiment: Antibacterial activity against Klebsiella pneumoniae 05-4 after 18 to 24 hrs
Staphylococcus aureus [2] = experiment: Antibacterial activity against methicillin-sensitive Staphylococcus aureus 04-4 after 18 to 24 hrs
Escherichia coli = experiment: Antibacterial activity against Escherichia coli ATCC 25922 after 18 to 24 hrs
Enterococcus faecalis = experiment: Antibacterial activity against Enterococcus faecalis 03-4 after 18 to 24 hrs

CNC1CCN(c2nc3c(cc2F)c(=O)c(C(=O)O)cn3C2CC2)C/C1=N\OC (stereo not drawn)
MIC (Streptococcus pneumoniae): < 0.001 µg/mL | MIC (Staphylococcus aureus [1]): 0.5 µg/mL (≈ 1.24 µM) | MIC (Pseudomonas aeruginosa): 0.06 µg/mL (≈ 0.149 µM) | MIC (Klebsiella pneumoniae): 1 µg/mL (≈ 2.48 µM) | MIC (Staphylococcus aureus [2]): < 0.001 µg/mL | MIC (Escherichia coli): 1 µg/mL (≈ 2.48 µM) | MIC (Enterococcus faecalis): < 0.001 µg/mL

CO/N=C1\CN(c2nc3c(cc2F)c(=O)c(C(=O)O)cn3C2CC2)CCC1NC1CC1 (stereo not drawn)
MIC (Streptococcus pneumoniae): 0.004 µg/mL (≈ 0.00931 µM) | MIC (Staphylococcus aureus [1]): 2 µg/mL (≈ 4.66 µM) | MIC (Pseudomonas aeruginosa): 1 µg/mL (≈ 2.33 µM) | MIC (Klebsiella pneumoniae): 16 µg/mL (≈ 37.3 µM) | MIC (Staphylococcus aureus [2]): 0.015 µg/mL (≈ 0.0349 µM) | MIC (Escherichia coli): 16 µg/mL (≈ 37.3 µM) | MIC (Enterococcus faecalis): 0.004 µg/mL (≈ 0.00931 µM)

CCO/N=C1\CCN(c2nc3c(cc2F)c(=O)c(C(=O)O)cn3C2CC2)CC1NC (stereo not drawn)
MIC (Streptococcus pneumoniae): < 0.001 µg/mL | MIC (Staphylococcus aureus [1]): 4 µg/mL (≈ 9.58 µM) | MIC (Pseudomonas aeruginosa): 1 µg/mL (≈ 2.4 µM) | MIC (Klebsiella pneumoniae): 16 µg/mL (≈ 38.3 µM) | MIC (Staphylococcus aureus [2]): < 0.001 µg/mL | MIC (Escherichia coli): 8 µg/mL (≈ 19.2 µM) | MIC (Enterococcus faecalis): < 0.001 µg/mL

CCCO/N=C1\CCN(c2nc3c(cc2F)c(=O)c(C(=O)O)cn3C2CC2)CC1NC (stereo not drawn)
MIC (Streptococcus pneumoniae): 0.015 µg/mL (≈ 0.0348 µM) | MIC (Staphylococcus aureus [1]): 16 µg/mL (≈ 37.1 µM) | MIC (Pseudomonas aeruginosa): 2 µg/mL (≈ 4.64 µM) | MIC (Klebsiella pneumoniae): 8 µg/mL (≈ 18.5 µM) | MIC (Staphylococcus aureus [2]): 0.03 µg/mL (≈ 0.0695 µM) | MIC (Escherichia coli): 8 µg/mL (≈ 18.5 µM) | MIC (Enterococcus faecalis): 0.015 µg/mL (≈ 0.0348 µM)

CO/N=C1\CN(c2nc3c(cc2F)c(=O)c(C(=O)O)cn3C2CC2)CCC1N (stereo not drawn)
MIC (Streptococcus pneumoniae): 2 µg/mL (≈ 5.14 µM) | MIC (Staphylococcus aureus [1]): 4 µg/mL (≈ 10.3 µM) | MIC (Pseudomonas aeruginosa): 1 µg/mL (≈ 2.57 µM) | MIC (Klebsiella pneumoniae): 1 µg/mL (≈ 2.57 µM) | MIC (Staphylococcus aureus [2]): 2 µg/mL (≈ 5.14 µM) | MIC (Escherichia coli): 1 µg/mL (≈ 2.57 µM) | MIC (Enterococcus faecalis): 2 µg/mL (≈ 5.14 µM)

CNC1CN(c2nc3c(cc2F)c(=O)c(C(=O)O)cn3C2CC2)CC/C1=N\OCc1ccccc1 (stereo not drawn)
MIC (Streptococcus pneumoniae): 0.25 µg/mL (≈ 0.521 µM) | MIC (Staphylococcus aureus [1]): 16 µg/mL (≈ 33.4 µM) | MIC (Pseudomonas aeruginosa): 2 µg/mL (≈ 4.17 µM) | MIC (Klebsiella pneumoniae): 16 µg/mL (≈ 33.4 µM) | MIC (Staphylococcus aureus [2]): 0.125 µg/mL (≈ 0.261 µM) | MIC (Escherichia coli): 16 µg/mL (≈ 33.4 µM) | MIC (Enterococcus faecalis): 0.125 µg/mL (≈ 0.261 µM)

CO/N=C1\CCN(c2nc3c(cc2F)c(=O)c(C(=O)O)cn3C2CC2)CC1NC1CC1 (stereo not drawn)
MIC (Streptococcus pneumoniae): 0.004 µg/mL (≈ 0.00931 µM) | MIC (Staphylococcus aureus [1]): 2 µg/mL (≈ 4.66 µM) | MIC (Pseudomonas aeruginosa): 8 µg/mL (≈ 18.6 µM) | MIC (Klebsiella pneumoniae): 16 µg/mL (≈ 37.3 µM) | MIC (Staphylococcus aureus [2]): 0.015 µg/mL (≈ 0.0349 µM) | MIC (Escherichia coli): 16 µg/mL (≈ 37.3 µM) | MIC (Enterococcus faecalis): 0.004 µg/mL (≈ 0.00931 µM)

CO/N=C1\CCN(c2nc3c(cc2F)c(=O)c(C(=O)O)cn3C2CC2)CC1N(C)C (stereo not drawn)
MIC (Streptococcus pneumoniae): 0.015 µg/mL (≈ 0.0359 µM) | MIC (Staphylococcus aureus [1]): 1 µg/mL (≈ 2.4 µM) | MIC (Pseudomonas aeruginosa): 0.125 µg/mL (≈ 0.299 µM) | MIC (Klebsiella pneumoniae): 1 µg/mL (≈ 2.4 µM) | MIC (Staphylococcus aureus [2]): 0.004 µg/mL (≈ 0.00958 µM) | MIC (Escherichia coli): 8 µg/mL (≈ 19.2 µM) | MIC (Enterococcus faecalis): 0.015 µg/mL (≈ 0.0359 µM)

CCO/N=C1\CCN(c2nc3c(cc2F)c(=O)c(C(=O)O)cn3C2CC2)CC1N(C)C (stereo not drawn)
MIC (Streptococcus pneumoniae): 0.002 µg/mL (≈ 0.00464 µM) | MIC (Staphylococcus aureus [1]): 1 µg/mL (≈ 2.32 µM) | MIC (Pseudomonas aeruginosa): 1 µg/mL (≈ 2.32 µM) | MIC (Klebsiella pneumoniae): 2 µg/mL (≈ 4.64 µM) | MIC (Staphylococcus aureus [2]): 0.015 µg/mL (≈ 0.0348 µM) | MIC (Escherichia coli): 8 µg/mL (≈ 18.5 µM) | MIC (Enterococcus faecalis): 0.004 µg/mL (≈ 0.00927 µM)
